# Key:
# Format in all cases: cell-based
# [1] = tested on: TTP mRNA in MDA-MB-231 cells; assay: qPCR for TTP mRNA expression; conditions: MDA-MB-231, 24 h, vs DMSO
# Description: (§1) Cells were cultured in six-well plates and either treated with DMSO or drugs for 24 h. Total RNA was then extracted using Trizol reagent (TRI Reagent, Sigma-Aldrich, St Louis, Mo.). The cells were lysed directly on the culture dish by adding 1 ml of the TRI Reagent per 10 cm^2 surface area. Reverse transcription for preparation of cDNA was performed using 3 μg of total RNA, 150 ng random primers, 0.1 M dithiothreitol (DTT), 10 mM deoxynucleotide triphosphate (dNTP) and 200 U of SuperScript II (Invitrogen, Foster City, Calif.). The quantitative RT-QPCR was performed in multiplex in the Chroma 4 DNA Engine cycler (BioRad, Hercules, Calif., USA) using FAM-labelled TaqMan probes (Applied Biosystems, Foster City, Calif., USA) for TTP (ZFP36), HuR (ELAVL1), uPA (PLAU)-CXCR4, MMP-1, MMP-13, IL-8, PLK-1 while a VIC-labelled glyceraldehyde-3-phosphate dehydrogenase (GAPDH) probe was used as the endogenous control. Samples were amplified in triplicate and quantification of relative expression was performed using the estimation of quantitation cycle (Cq) method.
# (§2) To study the influence of PLK-1 inhibition on ARE-containing mRNA stability, the effect of volasertib treatment on the half-life of uPA was analyzed. Half-life of uPA mRNA was reduced from >6 hr to 0.5 hr in response to volasertib treatment compared to the DMSO control (FIG. 12C). […]
# [2] = tested on: HuR mRNA in MDA-MB-231 cells; assay: qPCR for HuR mRNA expression; conditions: MDA-MB-231, 24 h, vs DMSO
# Description: as §1, §2
# [3] = tested on: MDA-MB-231 cells; assay: Invasion assay (RTCA, Matrigel)
# Description: (§3) MDA-MB-231 cells were seeded in 6-well cell culture plates and incubated overnight. The cells were treated with the selected protein kinase inhibitors and incubated overnight. Then they were reseeded onto the invasion chamber in serum-free media at a density of 2×10^4 cells per well using 16-well CIM-Plate in Real-Time Cell Analysis (RTCA) Dual Plate (DP) Analyzer (ACEA Bioscinece, California, USA) that was loaded inside the incubator. The lower chambers to which cells will migrate were prepared to contain chemoattractant consisted of 10% FBS. For invasion assays, Matrigel (BioCoat, BD Biosciences, MA) which resembles the complex extracellular environment found in many tissues was prepared and used to coat the upper chamber of CIM plates. Invasion and migration were monitored continuously over 72-hour period using RTCA Software (ACEA Bioscinece, California, USA). The RTCA Instrument automatically monitors the cells every 15 minutes for 100 repetitions. For proliferation assays, the same principle was applied using a single chamber containing complete DMEM media (FIG. 10).
# (§4) Based on the dose-response curve, 330 nM was selected to be used as a standard dose for the experiments. In the invasion assay, MDA-MB-231 cells were treated with volasertib or DMSO for 24 hr, then invasion was monitored for 30 hr.
# [4] = tested on: MDA-MB-231 cells; assay: Migration assay (RTCA, without Matrigel); conditions: MDA-MB-231, thirty hours after treatment
# Description: as §3, §4
# [5] = tested on: MDA-MB-231 cells; assay: Proliferation assay (RTCA); conditions: MDA-MB-231, 300 nM, vs DMSO
# Description: as §3, §4
# [6] = tested on: MDA-MB-231, MCF7, and SKBR3 cell lines; assay: mRNA expression in breast cancer cell lines
# Description: as §1
# PLK1 kinase, as an example of kinases involved in cancer, is over-expressed in breast cancer cell lines, including MCF7, MDA-MB-231 and SKBR3 when compared to the normal-like MCF10A (FIG. 5A). Many kinases are either over-expressed or constitutively active or hyperactive in cancer states when compared to normal cells. As example of inhibitors that are found in the precision cancer therapy screen, Volasertib and Regorafenib (VEGFR kinase inhibitor) led to reduction in the level of ARE-containing mRNA, uPA in most of the cancer cell lines. (FIG. 5B).
# The present inventors further disclose that the effect of PLK-1 inhibition is consistent among different types of breast cancer including triple-negative, […], and ER-PR negative breast cancers, as shown through the actions induced by PLK-1 inhibitor volasertib on MDA-MB-231, MCF7, and SKBR3 cell lines, namely increasing the expression of TTP, decreasing the HuR level, and downregulating the TTP target uPA. […] Accordingly, the present inventor discloses that any protein kinase inhibitor which post-transcriptionally regulates expression of cancer-related genes is suitable for precision cancer therapy. Further disclosed is a method of treatment of cancer comprising administering said protein kinase inhibitor, to a patient in need thereof.
# [7] = tested on: MDA-MB-231 cells; assay: RNAseq analysis of global gene expression
# Excerpt: mRNA was extracted from DMSO- or volasertib-treated […]. cDNA libraries were made for sequencing a measure of transcript copy numbers that correspond to the abundance of each gene (FIG. 6A). […] Among those is 170 ARE-coding genes as derived by crossing with AU-rich element database. (FIG. 6B).
# [8] = tested on: PD-1L; assay: PD-1L expression; conditions: FIG. 18
# Description: FIG. 18: Volasertib reduces PD-1L expression.
# These include IL-8, solute carrier family 2 member 1 (SLC2A1), uPA, uPAR, CXCR4, MMP13, PDL1, and HuR. The MDA-MB-231 cells were treated with 330 nM volasertib or DMSO for 24 hr, then quantitative RT-qPCR was performed in using FAM-labelled TaqMan probe of the above genes and normalized to GADPH (FIG. 11).
# [9] = MDA-MB-231, MCF7, and SKBR3 cell lines
smiles,measurement,setting,value
CC[C@@H]1C(=O)N(C)c2cnc(Nc3ccc(C(=O)N[C@H]4CC[C@H](N5CCN(CC6CC6)CC5)CC4)cc3OC)nc2N1C(C)C [volasertib],enhancement of TTP mRNA expression,[1],40%
same,reduction of HuR mRNA expression,[2],60%
same,invasive behavior,"[3]; MDA-MB-231 treated 24 hr, monitored 30 hr, vs DMSO",reduced invasive behavior
same,time at which the effect on invasion started,[3]; after treatment,6 h
same,cell migration,[4],reduce breast cancer cells migration
same,proliferation,[5],significantly reduced
same,level of ARE-containing mRNA uPA in cancer cell lines,"[6]; MCF7, MDA-MB-231 and SKBR3, most of the cancer cell lines",reduction
same,HuR level,[6]; [9],decreasing
same,TTP target uPA,[6]; [9],downregulating
same,expression of TTP,[6]; [9],increasing
same,number of ARE-coding genes among the down-regulated genes,[7]; crossed with AU-rich element database,170 genes
same,number of genes down-regulated by at least 1.7-fold,"[7]; p<0.001, vs DMSO",540 genes
same,PD-1L expression,[8],reduces
